Measured values: patent US9765035B2 (priority 2013, dated 2017)
Where two headings read alike, the source gives them in different places.

Key:
human PRMT1 = target: T1, human PRMT1 (Homo sapiens, UniProt Q99873); experiment: biochemical
T1 construct: GST-tagged PRMT1; made in house; host or cells: High Five insect cells (baculovirus)
Description: General Materials. S-adenosylmethionine (SAM), S-adenosylhomocysteine (SAH), bicine, Tween20, dimethylsulfoxide (DMSO), bovine skin gelatin (BSG), and Tris(2-carboxyethyl)phosphine hydrochloride solution (TCEP) were purchased from Sigma-Aldrich at the highest level of purity possible. ^3H-SAM was purchase from American Radiolabeled Chemicals with a specific activity of 80 Ci/mmol. 384-well streptavidin Flashplates were purchased from PerkinElmer.
Substrates. Peptide representative of human histone H4 residues 36-50 was synthesized with an N-terminal linker-affinity tag motif and a C-terminal amide cap by 21st Century Biochemicals. The peptide was purified by high-performance liquid chromatography (HPLC) to greater than 95% purity and confirmed by liquid chromatography mass spectrometry (LC-MS). The sequence was Biot-Ahx-[…]-amide (SEQ ID NO.:1).
Molecular Biology: Full-length human PRMT1 isoform 1 (NM_001536.5) transcript clone was amplified from an HEK 293 cDNA library, incorporating flanking 5′ sequence encoding a FLAG tag ([…]) (SEQ ID NO.:2) fused directly to Met 1 of PRMT1. The amplified gene was subcloned into pFastBacI (Life Technologies) modified to encode an N-terminal GST tag and a TEV cleavage sequence
Protein Expression. Recombinant baculovirus were generated according to Bac-to-Bac kit instructions (Life Technologies). Protein over-expression was accomplished by infecting exponentially growing High Five insect cell culture at 1.5×10^6 cell/ml with 1:100 ratio of virus. Infections were carried out at 27° C. for 48 hours, harvested by centrifugation, and stored at −80° C. for purification.
Protein Purification. […] GST-tagged PRMT1 was eluted with 50 mM Tris, 2 mM glutathione, pH 7.8, dialysed in buffer A and concentrated to 1 mg/mL. The purity of recovered protein was 73%. Reference: Wasilko, D. J. and S. E. Lee: “TIPS: titerless infected-cells preservation and scale-up” Bioprocess J., 5 (2006), pp. 29-32.
General Procedure for PRMT1 Enzyme Assays on Peptide Substrates. The assays were all performed in a buffer consisting of 20 mM Bicine (pH=7.6), 1 mM TCEP, 0.005% BSG, and 0.002% Tween 20, prepared on the day of use. Compounds in 100% DMSO (1 ul) were spotted into a polypropylene 384-well V-bottom plates (Greiner) using a Platemate Plus outfitted with a 384-channel head (Thermo Scientific). DMSO (1 ul) was added to Columns 11, 12, 23, 24, rows A-H for the maximum signal control and 1 ul of SAH, a known product and inhibitor of PRMT1, was added to columns 11, 12, 23, 24, rows I-P for the minimum signal control. A cocktail (40 ul) containing the PRMT1 enzyme was added by Multidrop Combi (Thermo-Fisher). The compounds were allowed to incubate with PRMT1 for 30 min at room temperature, then a cocktail (10 ul) containing SAM and peptide was added to initiate the reaction (final volume=51 ul). The final concentrations of the components were as follows: PRMT1 was 0.5 nM, ^3H-SAM was 200 nM, non-radiolabeled SAM was 1.5 uM, peptide was 20 nM, SAH in the minimum signal control wells was 1 mM, and the DMSO concentration was 2%. The assays were stopped by the addition of non-radiolabeled SAM (10 ul) to a final concentration of 300 uM, which dilutes the ^3H-SAM to a level where its incorporation into the peptide substrate is no longer detectable. 50 ul of the reaction in the 384-well polypropylene plate was then transferred to a 384-well Flashplate and the biotinylated peptides were allowed to bind to the streptavidin surface for at least 1 hour before being washed once with 0.1% Tween20 in a Biotek EL×405 plate washer. The plates were then read in a PerkinElmer TopCount plate reader to measure the quantity of ^3H-labeled peptide bound to the Flashplate surface, measured as disintegrations per minute (dpm) or alternatively, referred to as counts per minute (cpm).
Where dpm=disintegrations per minute, cmpd=signal in assay well, and min and max are the respective minimum and maximum signal controls. […]

[1] = system: RKO cells, mono-methyl arginine; experiment: RKO Methylation Assay (In Cell Western for mono-methyl arginine); type: cell-based; conditions: Homo sapiens
Description: RKO adherent cells were purchased from ATCC (American Type Culture Collection), Manassas, Va., USA. DMEM/Glutamax medium, penicillin-streptomycin, heat inactivated fetal bovine serum, 0.05% trypsin and D-PBS were purchased from Life Technologies, Grand Island, N.Y., USA. Odyssey blocking buffer, 800CW goat anti-rabbit IgG (H+L) antibody, and Licor Odyssey infrared scanner were purchased from Licor Biosciences, Lincoln, Nebr., USA. Mono-methyl arginine antibody was purchased from Cell Signaling Technology, Danvers, Mass., USA. Methanol was purchased from VWR, Franklin, Mass., USA. 10% Tween 20 was purchased from KPL, Inc., Gaithersburg, Md., USA. DRAQ5 was purchased from Biostatus Limited, Leicestershire, UK.
RKO adherent cells were maintained in growth medium (DMEM/Glutamax medium supplemented with 10% v/v heat inactivated fetal bovine serum and 100 units/mL penicillin-streptomycin) and cultured at 37° C. under 5% CO2.
Cell Treatment, in Cell Western (ICW) for Detection of Mono-Methyl Arginine and DNA Content. […] Compound (100 nL) from a 96-well source plate was added directly to 384 well cell plate. Plates were incubated at 37° C., 5% CO2 for 72 hours. After three days of incubation, plates were brought to room temperature outside of the incubator for ten minutes and blotted on paper towels to remove cell media. 50 μL of ice cold 100% methanol was added directly to each well and incubated for 30 min at room temperature. After 30 min, plates were transferred to a Biotek EL406 plate washer and washed 2 times with 100 μL per well of wash buffer (1×PBS). Next 60 μL per well of Odyssey blocking buffer (Odyssey Buffer with 0.1% Tween 20 (v/v)) were added to each plate and incubated 1 hour at room temperature. Blocking buffer was removed and 20 μL per well of primary antibody was added (mono-methyl arginine diluted 1:200 in Odyssey buffer with 0.1% Tween 20 (v/v)) and plates were incubated overnight (16 hours) at 4° C. Plates were washed 5 times with 100 μL per well of wash buffer. […] The plates were washed 5 times with 100 μL per well wash buffer then 2 times with 100 μL per well of water. Plates were allowed to dry at room temperature then imaged on the Licor Odyssey machine which measures integrated intensity at 700 nm and 800 nm wavelengths. Both 700 and 800 channels were scanned.
Calculations: First, the ratio for each well was determined by:
Each plate included fourteen control wells of DMSO only treatment (minimum activation) as well as fourteen control wells for maximum activation treated with 20 μM of a reference compound. The average of the ratio values for each control type was calculated and used to determine the percent activation for each test well in the plate. Reference compound was serially diluted three-fold in DMSO for a total of nine test concentrations, beginning at 20 μM. Percent activation was determined and EC30 curves were generated using triplicate wells per concentration of compound.

[2] = biochemical evaluation, peptide substrate, read-out: PRMT1 IC50
[3] = single experiment or average of multiple experiments, read-out: PRMT1 biochemical evaluation (numerical)
[4] = RKO, 72 h, read-out: RGG ICW EC30
[5] = In Cell Western EC30, RKO cells, 72 hours, single experiment or average of multiple experiments, read-out: RGG ICW
[6] = In Cell Western, RKO cells, 72 hours, read-out: RGG ICW EC30

T1 sequence (Q99873 other isoform, or with tags, fused parts or gaps): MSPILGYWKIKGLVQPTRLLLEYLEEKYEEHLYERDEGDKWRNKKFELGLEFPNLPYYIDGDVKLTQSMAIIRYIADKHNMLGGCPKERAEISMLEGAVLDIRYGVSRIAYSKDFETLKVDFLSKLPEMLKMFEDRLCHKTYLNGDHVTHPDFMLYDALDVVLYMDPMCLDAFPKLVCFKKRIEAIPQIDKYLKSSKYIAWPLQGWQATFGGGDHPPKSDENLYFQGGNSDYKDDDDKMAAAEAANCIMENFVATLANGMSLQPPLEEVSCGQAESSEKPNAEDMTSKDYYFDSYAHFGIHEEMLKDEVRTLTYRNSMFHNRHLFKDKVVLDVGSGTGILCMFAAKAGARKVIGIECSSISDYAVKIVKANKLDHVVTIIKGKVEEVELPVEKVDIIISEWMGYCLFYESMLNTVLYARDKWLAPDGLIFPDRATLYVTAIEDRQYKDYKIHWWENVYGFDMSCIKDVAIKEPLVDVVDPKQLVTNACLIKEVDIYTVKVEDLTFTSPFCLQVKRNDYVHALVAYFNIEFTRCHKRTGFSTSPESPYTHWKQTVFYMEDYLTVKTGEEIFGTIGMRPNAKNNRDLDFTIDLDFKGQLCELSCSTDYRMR

SMILES	IC50 (human PRMT1; [2]) [nM]	IC50 (human PRMT1; [3]) [nM]	EC30 ([1]; RKO, 72 h, read-out: RGG ICW) [µM]	EC30 [1, 4] [µM]	EC30 [1, 5] [µM]	EC30 [1, 6] [µM]
CNCCN(C)Cc1n[nH]c2ccc(OCc3ccn(C)n3)cc12 [Compound 20]	< 100	6.33	0.71	< 3		
CNCCN(C)Cc1n[nH]c2ccc(Oc3cccc(OC)c3)cc12 [Compound 22]	< 100	11.9			1.49	< 3
CNCCN(C)Cc1n[nH]c2ccc(Oc3ccccc3Cl)cc12 [Compound 30]	< 100	64.5	7.2	3.01 to 12		
CNCCN(C)Cc1n[nH]c2ccc(OC3CCCCC3)cc12 [Compound 18]	< 100	40.2			0.582	< 3
CNCCN(C)Cc1n[nH]c2ccc(OC3CCOCC3)cc12 [Compound 29, N^1,N^2-dimethyl-N^1-((5-((tetrahydro-2H-pyran-4-yl)oxy)-1H-indazol-3-yl)methyl)ethane-1,2-diamine]	< 100	28.2	5.04	3.01 to 12		
CNCCN(C)Cc1n[nH]c2ccc(Oc3ccc(C#N)cc3)cc12 [Compound 37]	1010 to 3000	6420			> 20	> 12
CNCCN(C)Cc1n[nH]c2ccc(OCc3ccc(C(C)=O)cc3)cc12 [Compound 23]	< 100	12			1.76	< 3
CNCCN(C)Cc1n[nH]c2ccc(OCc3cccc(C#N)c3)cc12 [Compound 14]	< 100	23.3			4.14	3.01 to 12
CNCCN(C)Cc1n[nH]c2cccc(OCCC(C)C)c12 [Compound 31]	≤ 100	46.5			8.24	3.01 to 12
CNCCN(C)Cc1n[nH]c2ccc(OCC(C)c3ccccc3)cc12 (stereo not drawn) [Compound 19]	< 100	15.9			0.68	< 3
CNCCN(C)Cc1n[nH]c2ccc(OCCCOC)cc12 [Compound 6]	< 100	19			1.55	< 3
CNCCN(C)Cc1n[nH]c2ccc(Oc3ccc(C(F)(F)F)cc3)cc12 [Compound 39]	< 100	2270	> 20	> 12		
CNCCN(C)Cc1n[nH]c2ccc(Oc3cccc(Cl)c3)cc12 [Compound 27, N^1-((5-(3-chlorophenoxy)-1H-indazol-3-yl)methyl)-N^1,N^2-dimethylethane-1,2-diamine]	< 100	31.6	4.47	3.01 to 12		
CC(C)COc1ccc2[nH]nc(CN(C)CCN)c2c1 [Compound 2, N1-((5-iso-butoxy-1H-indazol-3-yl)methyl)-N1-methylethane-1,2-diamine]	< 100	21			4.21	3.01 to 12
CN(CCN)Cc1n[nH]c2ccc(OCc3ccccc3)cc12 [Compound 1B]	< 100	3.59			1.71	< 3
CNCCN(C)Cc1n[nH]c2ccc(Oc3ccccc3OC)cc12 [Compound 24]	< 100	12.7	1.93	< 3		
CNCCN(C)Cc1n[nH]c2ccc(OCc3cc[nH]n3)cc12 [Compound 17]	< 100	51.7		> 12	8.99	
CNCCN(C)Cc1n[nH]c2ccc(Oc3cccc(C)c3)cc12 [Compound 26]	< 100	44	3.07	3.01 to 12		
CNCCN(C)Cc1n[nH]c2ccc(OC3CCOC3)cc12 (stereo not drawn) [Compound 25, N^1,N^2-dimethyl-N^1-((5-((tetrahydrofuran-3-yl)oxy)-1H-indazol-3-yl)methyl)ethane-1,2-diamine]	≤ 100	81.9			2.66	< 3
CNCCN(C)Cc1c2cc(OCc3ccc(C#N)cc3)ccc2nn1C(C)C [Compound 34]	3010 to 10000	182	> 20	> 12		
CNCCN(C)Cc1n[nH]c2ccc(Oc3ccccc3)cc12 [Compound 10, N^1,N^2-dimethyl-N^1-((5-phenoxy-1H-indazol-3-yl)methyl)ethane-1,2-diamine]	< 100	16.2			3.83	3.01 to 12
CNCCN(C)Cc1nn(C)c2ccc(OCC(C)C)cc12 [Compound 3, N^1-((5-iso-butoxy-1-methyl-1H-indazol-3-yl)methyl)-N^1,N^2-dimethylethane-1,2-diamine]	< 100	56.2			14	> 12
CNCCN(C)Cc1n[nH]c2cccc(OCc3ccccc3)c12 [Compound 21]	< 100	13.1			0.912	< 3
CNCCN(C)Cc1n[nH]c2ccc(Oc3cccc(C#N)c3)cc12 [Compound 28]	< 100	22.5	4.62	3.01 to 12		
